Reference: patent US20070043076A1, “Substituted 2-arylmethylene-n-aryl-n'aryl-malonamides and analogs as activators of caspases and inducers of apoptosis” (priority 2003, published 2007)
Where two headings read alike, the source gives them in different places.

How the values were obtained:
T-47D [1] = assay: Caspase cascade activation (Ac-DEVD-R110 fluorogenic substrate) in T-47D cells; format: cell-based, Human; conditions: 24 h incubation; for Caspase Activity Ratio: ratio of net RFU to that of control samples; for EC50: 0.16 to 10 μM final, read-out: Caspase potency EC50
Experimental: (§1) Human breast cancer cell lines T-47D and ZR-75-1 were grown according to media component mixtures designated by American Type Culture Collection +10% FCS (Invitrogen Corporation), in a 5% CO2-95% humidity incubator at 37° C. T-47D and ZR-75-1 cells were maintained at a cell density between 30 and 80% confluency and for HL-60 at a cell density of 0.1 to 0.6×10^6 cells/mL. Cells were harvested at 600×g and resuspended at 0.65×10^6 cells/mL into appropriate media +10% FCS. An aliquot of 45 μL of cells was added to a well of a 96-well microtiter plate containing 5 μL of a 10% DMSO in RPMI-1640 media solution containing 1.6 to 100 μM of N,N′-bis-(3-trifluoromethyl-phenyl)-2-(4-isopropyl-benzylidene)-malonamide or other test compound (0.16 to 10 μM final). An aliquot of 45 μL of cells was added to a well of a 96-well microtiter plate containing 5 μL of a 10% DMSO in RPMI-1640 media solution without test compound as the control sample. The samples were mixed by agitation and then incubated at 37° C. for 24 h in a 5% CO2-95% humidity incubator. After incubation, the samples were removed from the incubator and […] of a solution containing 20 μM of N-(Ac-DEVD)-N′-ethoxycarbonyl-R110 fluorogenic substrate (SEQ ID NO:1) (Cytovia, Inc.; U.S. Pat. No. 6,335,429), 20% sucrose (Sigma), 20 mM DTT (Sigma), 200 mM NaCl (Sigma), 40 mM Na PIPES buffer pH 7.2 (Sigma), and 500 μg/mL lysolecithin (Calbiochem) was added. The samples were mixed by agitation and incubated at room temperature. Using a fluorescent plate reader (Model 1420 Wallac Instruments), an initial reading (T=0) was made approximately 1-2 min after addition of the substrate solution, employing excitation at 485 nm and emission at 530 nm, to determine the background fluorescence of the control sample. After approximately 3 h of incubation, the samples were read for fluorescence as above (T=3 h).
(§2) The relative Fluorescence Unit values (RFU) were used to calculate the sample readings as follows: RFU(T=3h)−Control RFU(T=0)=Net RFU(T=3h)
(§3) The activity of caspase cascade activation was determined by the ratio of the net RFU value for N,N′-bis-(3-trifluoromethyl-phenyl)-2-(4-isopropyl-benzylidene)-malonamide to that of control samples. The EC50 (nM) was determined by a sigmoidal dose-response calculation (Prism 2.0, GraphPad Software Inc.).

ZR-75-1 = assay: Caspase cascade activation (Ac-DEVD-R110 fluorogenic substrate) in ZR-75-1 cells; format: cell-based, Human; conditions: 24 h incubation; for Caspase Activity Ratio: ratio of net RFU to that of control samples; for EC50: 0.16 to 10 μM final, read-out: Caspase potency EC50
Experimental: as §1, §2, §3

T-47D [2] = assay: Inhibition of cell proliferation (GI50, CellTiter 96 AQueous One) in T-47D cells; format: cell-based; conditions: Homo sapiens, T47D, 48 h incubation, read-out: GI50 (dose for 50% inhibition of cell proliferation)
Experimental: (§4) T-47D and DLD-1 cells were grown and harvested as in Example 105. An aliquot of 90 μL of cells (2.2×10^4 cells/mL) was added to a well of a 96-well microtiter plate containing 10 μl of a 10% DMSO in RPMI-1640 media solution containing 1 nM to 100 μM of N,N′-bis-(3-trifluoromethyl-phenyl)-2-(4-isopropyl-benzylidene)-malonamide (0.1 nM to 10 μM final). An aliquot of 90 μL of cells was added to a well of a 96-well microtiter plate containing 10 μL of a 10% DMSO in RPMI-1640 media solution without compound as the control sample for maximal cell proliferation (AMax). The samples were mixed by agitation and then incubated at 37° C. for 48 h in a 5% CO2-95% humidity incubator. After incubation, the samples were removed from the incubator and 20 μL of CellTiter 96 AQUEOUS One Solution Cell Proliferation™ reagent (Promega) was added. The samples were mixed by agitation and incubated at 37° C. for 2-4 h in a 5% CO2-95% humidity incubator. Using an absorbance plate reader (Model 1420 Wallac Instruments), an initial reading (T=0) was made approximately 1-2 min after addition of the solution, employing absorbance at 490 nm. This determines the possible background absorbance of the test compounds. No absorbance for N,N′-bis-(3-trifluoromethyl-phenyl)-2-(4-isopropyl-benzylidene)-malonamide was found at 490 nm. After the 2-4 h incubation, the samples were read for absorbance as above (ATest).
(§5) Baseline for GI50 (dose for 50% inhibition of cell proliferation) of initial cell numbers were determined by adding an aliquot of 90 μL of cells or 90 μL of media, respectively, to wells of a 96-well microtiter plate containing 10 μL of a 10% DMSO in RPMI-1640 media solution. The samples were mixed by agitation and then incubated at 37° C. for 0.5 h in a 5% CO2-95% humidity incubator. After incubation, the samples were removed from the incubator and 20 μL of CellTiter 96 AQUEOUS One Solution Cell Proliferation™ reagent (Promega) was added. The samples were mixed by agitation and incubated at 37° C. for 2-4 h in a 5% CO2-95% humidity incubator. Absorbance was read as above, (AStart) defining absorbance for initial cell number used as baseline in GI50 determinations.
(§6) GI50 (dose for 50% inhibition of cell proliferation) is the concentration where [(ATest−AStart)/(AMax−AStart)]=0.5.

DLD-1 = assay: Inhibition of cell proliferation (GI50, CellTiter 96 AQueous One) in DLD-1 cells; format: cell-based; conditions: Homo sapiens, 48 h incubation, read-out: GI50 (dose for 50% inhibition of cell proliferation)
Experimental: as §4, §5, §6

EC50 (T-47D [1]; Homo sapiens, T47D) | EC50 (ZR-75-1; Homo sapiens) | GI50 (T-47D [2]) | GI50 (DLD-1) | EC50 (T-47D [1]) | EC50 (ZR-75-1) | SMILES | Caspase Activity Ratio (T-47D [1]) | Caspase Activity Ratio (ZR-75-1)
> 10000 nM | > 10000 nM | – | – | – | – | CC(C)c1ccc(C=C(C(=O)Nc2ccccc2C(F)(F)F)C(=O)Nc2ccccc2C(F)(F)F)cc1 [Example 11, N,N′-Bis-(2-trifluoromethyl-phenyl)-2-(4-isopropyl-benzylidene)-malonamide] | 1 | 1
– | – | 467 nM | 1650 nM | – | – | CC(C)c1ccc(C=C(C(=O)Nc2cccc(O)c2)C(=O)Nc2cccc(O)c2)cc1 [Example 18, N,N′-Bis-(3-hydroxy-phenyl)-2-(4-isopropyl-benzylidene)-malonamide] | – | –
> 10000 nM | > 10000 nM | – | – | – | – | CC(C)c1ccc(C=C(C(=O)Nc2ccc(C(F)(F)F)cc2)C(=O)Nc2ccc(C(F)(F)F)cc2)cc1 [Example 12, N,N′-Bis-(4-trifluoromethyl-phenyl)-2-(4-isopropyl-benzylidene)-malonamide] | 1 | 1
2850 nM | 5500 nM | – | – | – | – | COc1cccc(NC(=O)C(=Cc2ccc(C(F)(F)F)cc2)C(=O)Nc2cccc(OC)c2)c1 [Example 1, N,N′-Bis-(3-methoxy-phenyl)-2-(4-trifluoromethyl-benzylidene)-malonamide] | 28 | 14
> 10000 nM | > 10000 nM | – | – | – | – | COc1ccc(C=C(C(=O)Nc2cccc(C(F)(F)F)c2)C(=O)Nc2cccc(C(F)(F)F)c2)c(OC)c1 [Example 6, N,N′-Bis-(3-trifluoromethyl-phenyl)-2-(2,4-dimethoxy-benzylidene)-malonamide] | 1 | 1
5790 nM | 4500 nM | – | – | – | – | CC(C)c1ccc(C=C(C(=O)Nc2ccccc2)C(=O)Nc2ccccc2)cc1 [Example 10, N,N′-Diphenyl-2-(4-isopropyl-benzylidene)-malonamide] | 16 | 2.5
1900 nM | 5400 nM | – | – | – | – | Cc1ccc(C=C(C(=O)Nc2cccc(C(F)(F)F)c2)C(=O)Nc2cccc(C(F)(F)F)c2)c(C)c1 [Example 5, N,N′-Bis-(3-trifluoromethyl-phenyl)-2-(2,4-dimethyl-benzylidene)-malonamide] | 30 | 26
647 nM | 906 nM | 150 nM | 200 nM | – | – | O=C(Nc1cccc(C(F)(F)F)c1)C(=Cc1ccc(Cl)cc1Cl)C(=O)Nc1cccc(C(F)(F)F)c1 [Example 2, N,N′-Bis-(3-trifluoromethyl-phenyl)-2-(2,4-dichloro-benzylidene)-malonamide] | 16 | 18
> 10000 nM | 1700 nM | – | – | – | – | CC(C)c1ccc(CC(C(=O)Nc2cccc(C(F)(F)F)c2)C(=O)Nc2cccc(C(F)(F)F)c2)cc1 [Example 7, N,N′-Bis-(3-trifluoromethyl-phenyl)-2-(4-isopropyl-benzyl)-malonamide] | 1 | 2.2
2890 nM | 5500 nM | – | – | – | – | COc1cccc(NC(=O)C(=Cc2ccc(C(C)C)cc2)C(=O)Nc2cccc(OC)c2)c1 [Example 13, N,N′-Bis-(3-methoxy-phenyl)-2-(4-isopropyl-benzylidene)-malonamide] | 21 | 4.5
– | – | 666 nM | 1650 nM | – | – | CCc1ccc(C=C(C(=O)Nc2cccc(C(F)(F)F)c2)C(=O)Nc2cccc(C(F)(F)F)c2)cc1 [Example 26, N,N′-Bis-(3-trifluoromethyl-phenyl)-2-(4-ethyl-benzylidene)-malonamide] | – | –
4050 nM | 4600 nM | 1570 nM | 1530 nM | – | – | O=C(Nc1cccc(C(F)(F)F)c1)C(=Cc1ccncc1)C(=O)Nc1cccc(C(F)(F)F)c1 [Example 8, N,N′-Bis-(3-trifluoromethyl-phenyl)-2-(4-pyridyl-methylene)-malonamide] | 17 | 9.5
1380 nM | 2790 nM | 46 nM | 1340 nM | – | – | O=C(Nc1cccc(C(F)(F)F)c1)C(=Cc1ccccc1)C(=O)Nc1cccc(C(F)(F)F)c1 [Example 15, N,N′-Bis-(3-trifluoromethyl-phenyl)-2-benzylidene-malonamide] | 16 | 6
– | – | 1520 nM | 1660 nM | – | – | CC(C)c1ccc(C=C(C(=O)Nc2cccc(Br)c2)C(=O)Nc2cccc(Br)c2)cc1 [Example 20, N,N′-Bis-(3-bromo-phenyl)-2-(4-isopropyl-benzylidene)-malonamide] | – | –
738 nM | 1980 nM | 1190 nM | 1230 nM | – | – | CC(C)c1ccc(C=C(C(=O)Nc2cccc(Cl)c2)C(=O)Nc2cccc(Cl)c2)cc1 [Example 14, N,N′-Bis-(3-chloro-phenyl)-2-(4-isopropyl-benzylidene)-malonamide] | 21 | 7.2
– | – | 1720 nM | 1680 nM | – | – | O=C(Nc1cccc(C(F)(F)F)c1)C(=Cc1cnc[nH]1)C(=O)Nc1cccc(C(F)(F)F)c1 [Example 16, N,N′-Bis-(3-trifluoromethyl-phenyl)-2-(3H-imidazol-4-yl-methylene)-malonamide] | – | –
– | – | – | – | 5750 nM | 5600 nM | O=C(Nc1cccc(C(F)(F)F)c1)C(=Cc1ccco1)C(=O)Nc1cccc(C(F)(F)F)c1 [Example 4, N,N′-Bis-(3-trifluoromethyl-phenyl)-2-furan-2-yl-methylene-malonamide] | 28 | 6
